The results in this text go back to patent US20230167170A1, “COMPOSITIONS COMPRISING ANTI-VEGF AND NANOPARTICLES AND METHODS OF USING THE SAME FOR THE TREATMENT OF ABNORMAL OR EXCESSIVE ANGIOGENESIS” (Cellviva, LLC, priority 2020, published 2023).

The test concerns pyogenic granuloma lesion. Nature of the test: Treatment of pyogenic granuloma after pterygiectomy and amniotic membrane graft with bevacizumab combination therapy (patient cases). In kind it is in vivo, human. The protocol:
A topical anesthetic (proparacaine 0.5% eye drops or Alcaine manufactured by Alcon Laboratories, Inc.) was applied to the eye following recent pterygiectomy and amniotic membrane graft surgery. The patients were examined to identify any abnormal grown on the eye. […] A syringe containing approximately 0.05 mL of bevacizumab ([…]) was injected into the eye and the plunger was drawn back to determine if blood was present in the syringe hub. […] Bevacizumab was then injected into the pyogenic granuloma lesion and/or in areas adjacent to the lesion where blood vessels were dilated and numerous. If bleeding occurred (e.g., in the form of subconjunctival or subcutaneous hematoma), tamponade with Q-tips was performed until bleeding stopped; then injection was resumed. The anti-inflammatory steroid drug and/or NSAID were administered either before or after the bevacizumab injection. The anti-inflammatory steroid drug and/or NSAID were administered by injection and/or via eye drops. If the anti-inflammatory steroid drug and/or NSAID was administered by injection, it was done following a similar process as described above for the bevacizumab injection. A syringe containing approximately 0.03 mL triamcinolone injection (40 mg/mL) was injected into the pyogenic granuloma lesion and the plunger was drawn back to determine if blood was present in the syringe hub. […] The anti-inflammatory steroid drug or NSAID was injected into the pyogenic granuloma lesion and/or in areas adjacent to the lesion where blood vessels were dilated and numerous. If bleeding occurred (e.g., in the form of subconjunctival or subcutaneous hematoma), tamponade with Q-tips was performed until bleeding stopped; then injection was resumed. If the anti-inflammatory steroid drug or NSAID was delivered by eyedrops, the steroid eye drops were given for approximately 6 weeks 1 to 4 times a day (every 6 hours) or once every hour (24 drops/day). NSAID eye drops were given 4 times a day every 6 hours for 3 to 6 months. Patients were followed up with to monitor for appearance of new pyogenic granuloma. The presence of new pyogenic granuloma was an indication for further treatment (e.g. with injection and/or eye drops). In some cases, during the first surgery to remove pterygium, the pterygium was only partially removed to prevent necrosis). Thus, in some patients, additional surgeries were subsequently performed to remove remaining sections of the pterygium, resulting in additional pyogenic granuloma. Two patients (Patients 1 and 2) underwent surgery to remove primary pterygium (pterygiectomy) from the cornea of one or both eyes followed by amniotic membrane graft surgery and were treated as described below.

[1] abbreviates: Patient 2, left eye, 1-month follow-up visit, triamcinolone day 98, bevacizumab day 100.

As to bevacizumab, the “resolution of pyogenic granuloma” value is, setting by setting: (Patient 1, right eye, 30 days after day 104, triamcinolone day 90, bevacizumab day 97) “completely resolved”; under setting [1], “completely resolved”; (Patient 3, right eye, day 86, triamcinolone 0.03 mL (40 mg/mL) day 60, bevacizumab 0.05 mL (1.25 mg/mL) day 68, FIG. 4) “completely resolved”. The pyogenic granuloma size entry is “considerably smaller in circumference” (Patient 1, right eye, day 104 after surgery, triamcinolone 0.03 mL (40 mg/mL) day 90, then bevacizumab 0.05 mL (1.25 mg/mL) day 97, both into the lesion) and “significantly smaller” (Patient 2, left eye, within two weeks of bevacizumab injection, triamcinolone 0.03 mL (40 mg/mL) day 98, bevacizumab 0.05 mL (1.25 mg/mL) day 100). Besides, where the note is “Patient 1, right eye, day 104 after surgery, triamcinolone day 90, bevacizumab day 97”, the “hyperemia of pyogenic granuloma” value is “no evidence of hyperemia”. The “pyogenic granuloma lesions, stated conclusion” value by setting is: (Patient 1, combination therapy of bevacizumab and an anti-inflammatory steroid (injected)) “inhibited”; (Patient 2, combination therapy of bevacizumab and an anti-inflammatory steroid (injected or topical)) “inhibited”. Also, the “recurrence of pyogenic granuloma” value under setting [1] is “no evidence of recurrence”. For the setting “Patient 2, left eye, within two weeks of bevacizumab injection, triamcinolone day 98, bevacizumab day 100”, the “erythema of pyogenic granuloma” value is “less erythematous”. Moreover, for the setting “Patient 3, combination therapy of bevacizumab, an anti-inflammatory steroid (injected or topical) and a topical NSAID”, the “pyogenic granuloma, stated conclusion” value was “eliminated”. The “combination therapy compared with bevacizumab alone” value (Patient 3, combination therapy of bevacizumab, anti-inflammatory steroid and topical NSAID) is given as “superior to treatment with bevacizumab alone”. Further, under “Patient's eye 18 days after injection of both Kenalog and bevacizumab, FIG. 4”, the “pyogenic granuloma lesion after steroid and anti-VEGF injection” value is “significant reduction in the pyogenic granuloma lesion”.
